# Experimental data as given in ChEMBL document CHEMBL3886473, “Compounds that are ERK inhibitors” (2016).
# Target: Mitogen-activated protein kinase 1 (Homo sapiens, UniProt P28482)
# Assay: IMAP-FP Assay: Activated ERK2 activity was determined in an IMAP-FP assay (Molecular Devices).
# Sequence of Mitogen-activated protein kinase 1 (P28482 whole entry): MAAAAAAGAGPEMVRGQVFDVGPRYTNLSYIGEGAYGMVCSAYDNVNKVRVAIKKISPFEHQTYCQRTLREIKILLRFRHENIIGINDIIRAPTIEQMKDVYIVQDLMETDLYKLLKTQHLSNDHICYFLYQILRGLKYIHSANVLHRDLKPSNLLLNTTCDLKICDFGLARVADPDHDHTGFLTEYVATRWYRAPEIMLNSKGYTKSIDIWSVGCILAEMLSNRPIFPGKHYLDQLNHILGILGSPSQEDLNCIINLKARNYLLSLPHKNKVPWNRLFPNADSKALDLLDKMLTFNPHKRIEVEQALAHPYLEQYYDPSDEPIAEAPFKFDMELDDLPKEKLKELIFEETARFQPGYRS
compound,measurement,value
COC(=O)Nc1n[nH]c2cc(NC(=O)N[C@H](C)c3ccc(Cl)c(OC)c3)ncc12,IC50,5.2 nM
